Where a name gives a salt, the structure may show the parent alone.
Columns and labels:
Details in all cases: exposure time: 72 h
E13 [1] = patient-derived glioblastoma stem cells of classical subtype; assay: surviving fraction (nuclei count normalised to DMSO); higher = more cells surviving (less toxic)
E21 [2] = patient-derived glioblastoma stem cells of mesenchymal subtype; assay: as above
E28 [3] = patient-derived glioblastoma stem cells of classical subtype; assay: as above
E31 [4] = patient-derived glioblastoma stem cells of proneural subtype; assay: as above
E34 [5] = patient-derived glioblastoma stem cells of proneural subtype; assay: as above
E57 [6] = patient-derived glioblastoma stem cells of mesenchymal subtype; assay: as above
FT3469 [7] = normal neural stem cell line; assay: as above
E13 [8] = assay: phenotypic distance (Euclidean, principal components) from DMSO controls (arbitrary units); higher = stronger morphological change
E21 [9] = assay: as above
E28 [10] = assay: as above
E31 [11] = assay: as above
E34 [12] = assay: as above
E57 [13] = assay: as above
FT3469 [14] = assay: as above
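For phenotypic distance (Euclidean, principal components) from DMSO controls in this document: cell Painting imaging in 384-well plates, CellProfiler features reduced to at least 20 principal components, Euclidean distance versus same-plate DMSO vehicle wells (0.1% v/v), median over six images per well.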
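For surviving fraction (nuclei count normalised to DMSO) in this document: nuclei counted by high-content imaging of Hoechst-stained cells in laminin-coated 384-well plates, relative to 0.1% DMSO vehicle wells, with staurosporine as cell-death control.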

CCCCC(CC)CNC(=N)NC(=N)NCCCCCCNC(=N)NC(=N)NCC(CC)CCCC (stereo unspecified) [Alexidine dihydrochloride]
Details	phenotypic distance	surviving fraction
E13 [1], 4.1 nM	–	0.884
E13 [1], 12.3 nM	–	0.905
E13 [1], 37 nM	–	0.978
E13 [1], 111.1 nM	–	0.877
E13 [1], 333.3 nM	–	0.607
E13 [1], 1000 nM	–	0.602
E13 [1], 3000 nM	–	0.0804
E13 [8], 4.1 nM	0.582	–
E13 [8], 12.3 nM	0.387	–
E13 [8], 37 nM	0.788	–
E13 [8], 111.1 nM	0.757	–
E13 [8], 333.3 nM	1.76	–
E13 [8], 1000 nM	1.39	–
E13 [8], 3000 nM	10.1	–
E21 [2], 4.1 nM	–	0.967
E21 [2], 12.3 nM	–	0.916
E21 [2], 37 nM	–	0.945
E21 [2], 111.1 nM	–	1.02
E21 [2], 333.3 nM	–	1.07
E21 [2], 1000 nM	–	0.368
E21 [2], 3000 nM	–	0.00297
E21 [9], 4.1 nM	0.597	–
E21 [9], 12.3 nM	1.12	–
E21 [9], 37 nM	0.958	–
E21 [9], 111.1 nM	0.651	–
E21 [9], 333.3 nM	0.84	–
E21 [9], 1000 nM	4.98	–
E21 [9], 3000 nM	19	–
E28 [3], 4.1 nM	–	0.911
E28 [3], 12.3 nM	–	0.933
E28 [3], 37 nM	–	0.847
E28 [3], 111.1 nM	–	1.04
E28 [3], 333.3 nM	–	0.694
E28 [3], 1000 nM	–	0.233
E28 [3], 3000 nM	–	0.0064
E28 [10], 4.1 nM	1.07	–
E28 [10], 12.3 nM	0.612	–
E28 [10], 37 nM	0.518	–
E28 [10], 111.1 nM	0.461	–
E28 [10], 333.3 nM	1.31	–
E28 [10], 1000 nM	3.13	–
E28 [10], 3000 nM	12.9	–
E31 [4], 4.1 nM	–	0.955
E31 [4], 12.3 nM	–	0.825
E31 [4], 37 nM	–	1.1
E31 [4], 111.1 nM	–	1.02
E31 [4], 333.3 nM	–	0.871
E31 [4], 1000 nM	–	0.125
E31 [4], 3000 nM	–	0.013
E31 [11], 4.1 nM	0.786	–
E31 [11], 12.3 nM	0.686	–
E31 [11], 37 nM	1.01	–
E31 [11], 111.1 nM	0.884	–
E31 [11], 333.3 nM	0.669	–
E31 [11], 1000 nM	5.57	–
E31 [11], 3000 nM	11.7	–
E34 [5], 4.1 nM	–	0.86
E34 [5], 12.3 nM	–	1.11
E34 [5], 37 nM	–	0.972
E34 [5], 111.1 nM	–	0.991
E34 [5], 333.3 nM	–	0.939
E34 [5], 1000 nM	–	0.512
E34 [5], 3000 nM	–	0.0472
E34 [12], 4.1 nM	1.35	–
E34 [12], 12.3 nM	1.19	–
E34 [12], 37 nM	0.769	–
E34 [12], 111.1 nM	0.582	–
E34 [12], 333.3 nM	0.858	–
E34 [12], 1000 nM	4.01	–
E34 [12], 3000 nM	14.9	–
E57 [6], 4.1 nM	–	1.01
E57 [6], 12.3 nM	–	1.01
E57 [6], 37 nM	–	0.91
E57 [6], 111.1 nM	–	1.03
E57 [6], 333.3 nM	–	0.828
E57 [6], 1000 nM	–	0.252
E57 [6], 3000 nM	–	0.00967
E57 [13], 4.1 nM	0.655	–
E57 [13], 12.3 nM	0.696	–
E57 [13], 37 nM	0.435	–
E57 [13], 111.1 nM	0.715	–
E57 [13], 333.3 nM	1.53	–
E57 [13], 1000 nM	6.34	–
E57 [13], 3000 nM	10.4	–
FT3469 [7], 4.1 nM	–	0.76
FT3469 [7], 12.3 nM	–	0.814
FT3469 [7], 37 nM	–	0.863
FT3469 [7], 111.1 nM	–	1.16
FT3469 [7], 333.3 nM	–	0.863
FT3469 [7], 1000 nM	–	0.504
FT3469 [7], 3000 nM	–	0.0403
FT3469 [14], 4.1 nM	1.28	–
FT3469 [14], 12.3 nM	1.28	–
FT3469 [14], 37 nM	1.13	–
FT3469 [14], 111.1 nM	0.545	–
FT3469 [14], 333.3 nM	1.44	–
FT3469 [14], 1000 nM	2.26	–
FT3469 [14], 3000 nM	11.7	–

CCC(C)(C)c1ccc(CC(C)CN2C[C@@H](C)O[C@@H](C)C2)cc1 (stereo partly specified) [Amorolfine hydrochloride]
Details	phenotypic distance	surviving fraction
E13 [1], 4.1 nM	–	0.95
E13 [1], 12.3 nM	–	0.95
E13 [1], 37 nM	–	1
E13 [1], 111.1 nM	–	0.97
E13 [1], 333.3 nM	–	0.959
E13 [1], 1000 nM	–	0.957
E13 [1], 3000 nM	–	0.638
E13 [8], 4.1 nM	0.768	–
E13 [8], 12.3 nM	0.554	–
E13 [8], 37 nM	0.708	–
E13 [8], 111.1 nM	0.428	–
E13 [8], 333.3 nM	0.915	–
E13 [8], 1000 nM	1.17	–
E13 [8], 3000 nM	3.08	–
E21 [2], 4.1 nM	–	0.94
E21 [2], 12.3 nM	–	1.02
E21 [2], 37 nM	–	0.982
E21 [2], 111.1 nM	–	1.09
E21 [2], 333.3 nM	–	1.03
E21 [2], 1000 nM	–	1.07
E21 [2], 3000 nM	–	0.816
E21 [9], 4.1 nM	0.885	–
E21 [9], 12.3 nM	0.483	–
E21 [9], 37 nM	0.732	–
E21 [9], 111.1 nM	0.989	–
E21 [9], 333.3 nM	1.11	–
E21 [9], 1000 nM	1.17	–
E21 [9], 3000 nM	1.97	–
E28 [3], 4.1 nM	–	1.09
E28 [3], 12.3 nM	–	0.852
E28 [3], 37 nM	–	1.21
E28 [3], 111.1 nM	–	0.914
E28 [3], 333.3 nM	–	1.17
E28 [3], 1000 nM	–	0.839
E28 [3], 3000 nM	–	0.777
E28 [10], 4.1 nM	0.829	–
E28 [10], 12.3 nM	0.874	–
E28 [10], 37 nM	0.838	–
E28 [10], 111.1 nM	0.682	–
E28 [10], 333.3 nM	0.846	–
E28 [10], 1000 nM	0.746	–
E28 [10], 3000 nM	1.38	–
E31 [4], 4.1 nM	–	0.939
E31 [4], 12.3 nM	–	0.934
E31 [4], 37 nM	–	0.967
E31 [4], 111.1 nM	–	0.983
E31 [4], 333.3 nM	–	1.05
E31 [4], 1000 nM	–	0.996
E31 [4], 3000 nM	–	0.804
E31 [11], 4.1 nM	0.639	–
E31 [11], 12.3 nM	0.653	–
E31 [11], 37 nM	0.833	–
E31 [11], 111.1 nM	0.88	–
E31 [11], 333.3 nM	0.504	–
E31 [11], 1000 nM	1.35	–
E31 [11], 3000 nM	2.01	–
E34 [5], 4.1 nM	–	0.983
E34 [5], 12.3 nM	–	1.06
E34 [5], 37 nM	–	0.937
E34 [5], 111.1 nM	–	1.06
E34 [5], 333.3 nM	–	1.09
E34 [5], 1000 nM	–	1.14
E34 [5], 3000 nM	–	0.815
E34 [12], 4.1 nM	0.551	–
E34 [12], 12.3 nM	1.11	–
E34 [12], 37 nM	1.1	–
E34 [12], 111.1 nM	1.17	–
E34 [12], 333.3 nM	0.856	–
E34 [12], 1000 nM	0.796	–
E34 [12], 3000 nM	1.7	–
E57 [6], 4.1 nM	–	1
E57 [6], 12.3 nM	–	0.954
E57 [6], 37 nM	–	1.05
E57 [6], 111.1 nM	–	1.02
E57 [6], 333.3 nM	–	0.957
E57 [6], 1000 nM	–	0.983
E57 [6], 3000 nM	–	1.02
E57 [13], 4.1 nM	0.935	–
E57 [13], 12.3 nM	0.283	–
E57 [13], 37 nM	0.726	–
E57 [13], 111.1 nM	0.552	–
E57 [13], 333.3 nM	0.896	–
E57 [13], 1000 nM	1.08	–
E57 [13], 3000 nM	2.02	–
FT3469 [7], 4.1 nM	–	1.01
FT3469 [7], 12.3 nM	–	0.924
FT3469 [7], 37 nM	–	1.24
FT3469 [7], 111.1 nM	–	1.1
FT3469 [7], 333.3 nM	–	1.02
FT3469 [7], 1000 nM	–	0.973
FT3469 [7], 3000 nM	–	1.02
FT3469 [14], 4.1 nM	1.11	–
FT3469 [14], 12.3 nM	0.614	–
FT3469 [14], 37 nM	1.09	–
FT3469 [14], 111.1 nM	0.588	–
FT3469 [14], 333.3 nM	0.893	–
FT3469 [14], 1000 nM	0.525	–
FT3469 [14], 3000 nM	1.13	–

Reference: the supplement of paper PMC13207355
